Test results: patent US20090275608A1, “Methods of diagnosing and treating parp-mediated diseases” (BiPar Sciences, Inc., priority 2008, published 2009)
“Also recorded” adds a separate entry of the source.

Tests used:
[1] = test system: OVCAR-3 xenograft; test: human ovarian adenocarcinoma OVCAR-3 xenograft model of cancer; assay type: in vivo, mice
Source text: Xenograft cancer models can be employed to measure the effects of treatment of PARP and co-regulated gene modulators on cancer growth and progression.
Moreover, ovarian adenocarcinoma OVCAR-3 cells produce IGF-I and IGF-II, and express IGF1R, supporting the existence of an autocrine loop.

[2] = test system: MDA-MB-468 cells; test: FACS cell cycle analysis (PI DNA content), Compound III with IGF1R inhibitor; assay type: cell-based, human; conditions: for G1 / G2/M / S / Sub-G1: MDA-MB-468
Experimental: (§1) The effects of Compound III and its nitroso metabolite on the cell cycle in cancer cell lines in combination with second agents were determined.
(§2) Compound III and Compound III-1 compounds were tested in the presence of the second agent according the schedule indicated in the Table below.
(§3) Cell Culture: Triple negative MDA-MB-468 human breast carcinoma, U251 human glioblastoma and lung adenocarcinoma HCC827 cells were cultured in Dulbecco Modified Eagle Medium with 10% fetal bovine serum. Cells were plated at a seeding density 10^5 per P100 or at 10^4 per P60 in growth media and incubated 12-18 h at 37° C., 5% CO2. Compounds with and without secondary agent (see Table 1) were added as a single dose for 72 hours. DMSO was used as a control. Following treatment, cells were analyzed with BrdU ELISA Assay (Roche Applied Science), FACS based cell cycle assay or TUNEL.
(§4) Compounds: Compound III was dissolved directly from dry powder in DMSO (cat #472301, Sigma-Aldrich) for each separate experiment, then the entire volume of the stock solution was used to prepare 111 nM, 313 nM and 1 μM working concentrations in cell culture medium to avoid any possibility of precipitation and the corresponding loss of compound.
(§5) PI Exclusion, Cell Cycle and TUNEL Assays (FACS): After the addition of drugs and incubation, cells were taken for counting and PI (Propidium Iodide) exclusion assay. One part of the cells was centrifuged and resuspended in 0.5 ml ice-cold PBS containing 5 μg/ml of PI. The other part of the cells was fixed in ice-cold 70% ethanol and stored in a freezer overnight. For cell cycle analysis, cells were stained with propidium iodide (PI) using standard procedures. Cellular DNA content was determined by flow cytometry using BD LSRII FACS, and the percentages of cells in G1, S or G2/M were determined using ModFit software.

[3] = test system: HCC827 cells; test: FACS cell cycle analysis (PI DNA content), Compound III with EGFR inhibitor; assay type: cell-based, human
Experimental: as §1, §2, §3, §4, §5

[4] = test system: HCC827 cells; test: TUNEL apoptosis assay (FACS), Compound III with EGFR inhibitor; assay type: cell-based, human; conditions: GFT 2 nM + 201 0 μM
Experimental: as §3, §4
(§6) To detect apoptosis, the cells were labeled with the “In Situ Cell Death Detection Kit, Fluorescein” (Roche Diagnostics Corporation, Roche Applied Science, Indianapolis, Ind.). […] All cell samples were analyzed with a BD LSR II (BD Biosciences, San Jose, Calif.). […]

[5] = test system: OVCAR-3 xenograft; conditions: previous studies, Gotlieb et al., 2006; cited from earlier work
[6] = test system: OVCAR-3 cells; conditions: OVCAR-3 cell line, Gotlieb et al., 2006; cited from earlier work
[7] = test system: OVCAR-4 cells; conditions: OVCAR-4 cell line, Gotlieb et al., 2006; cited from earlier work
[8] = test system: NFκB; conditions: multiple myeloma cells, Hideshima et al., 2002; cited from earlier work
[9] = test system: MDA-MB-468 cells; test: BrdU labeling assay (FACS / ELISA), Compound III with IGF1R inhibitor; assay type: cell-based, human
Experimental: as §3, §4
Bromodeoxyuridine (BrdU) labeling assay and FACS-based cell cycle analysis: 50 μl of BrdU (Sigma Chemical Co., St. Louis, Mo.) stock solution (1 mM) was added to achieve final concentration of 10 μM BrdU. Then cells were incubated for 30 min at 37° C. and fixed in ice-cold 70% ethanol and stored at 4° C. overnight. […] All cell samples were analyzed with a BD LSR II (BD Biosciences, San Jose, Calif.). […]

[10] = test system: MDA-MB-468 cells; test: TUNEL apoptosis assay (FACS), Compound III with IGF1R inhibitor; assay type: cell-based, human
Experimental: as §3, §4, §6

[11] = test system: MDA-MB-468 cells; test: cell counting and PI exclusion assay (cell survival), Compound III with IGF1R inhibitor; assay type: cell-based, human
Experimental: as §3, §4
as §5, with “The other part of the cells was fixed in ice-cold 70% ethanol and stored in a freezer overnight. For cell cycle analysis, cells were stained with propidium iodide (PI) using standard procedures.” left out

[12] = test system: NF-κB; conditions: HeLa cells; cited from earlier work

NC(=O)c1ccc(I)c([N+](=O)[O-])c1 [Compound III]
tumor growth, combination of PARP inhibitor and IGF1R inhibitor ([1]; Compound III combined with NVP-AEW541, expected from the single-agent data): inhibit tumor growth in mice even further | survival of mice ([1]; OVCAR-3 xenograft, FIG. 18): improve survival of mice; also recorded: improval of survival of mice | tumor growth ([1]; PARP1 inhibition by Compound III, OVCAR-3 xenograft in mice, FIG. 18): inhibit tumor growth | potentiation of the activity of IGF-1R inhibitor Picropodophyllin (PPP) ([2]; triple negative breast cancer cells MDA-MB-468, FIG. 19): potentiates the activity of IGF-1R inhibitor Picropodophyllin (PPP) | potentiation of the activity of the EGF-R inhibitor IRESSA ([3]; HCC827 cell line): potentiate the activity of the EGF-R inhibitor IRESSA®

COc1cc2ncnc(Nc3ccc(F)c(Cl)c3)c2cc1OCCCN1CCOCC1 [GFT]
G1 ([3]; HCC827, GFT 2 nM + 201 0 μM): 51.0 | G2/M ([3]; HCC827, GFT 2 nM + 201 0 μM): 9.2 | S ([3]; HCC827, GFT 2 nM + 201 0 μM): 34.4 | Sub-G1 ([3]; HCC827, GFT 2 nM + 201 0 μM): 3.4 | TUNEL(+) [4]: 6.2

Nc1ncnc2c1c(-c1cccc(OCc3ccccc3)c1)cn2C1CC(CN2CCC2)C1 (stereo not shown) [NVP-AEW541]
growth of OVCAR-3 tumor [5]: can inhibit growth of OVCAR-3 tumor | growth of the cells [6]: inhibited growth of the cells | growth of the cells [7]: inhibited growth of the cells

O=C(Nc1cc(Cl)cc2c1[nH]c1cnccc12)c1cccnc1 [PS-1145]
NFκB activation [8]: blocked NFκB activation

COc1cc([C@@H]2c3cc4c(cc3[C@H](O)[C@H]3COC(=O)[C@@H]23)OCO4)cc(OC)c1OC [Picropodophyllin]
G1 ([2]; PPP 200 nM + 201 0 uM): 51.42 | G2/M ([2]; PPP 200 nM + 201 0 uM): 15.01 | S ([2]; PPP 200 nM + 201 0 uM): 30.22 | Sub-G1 ([2]; PPP 200 nM + 201 0 uM): 1.22 | G1 ([2]; PPP 400 nM + 201 0 uM): 37.29 | G2/M ([2]; PPP 400 nM + 201 0 uM): 20.17 | S ([2]; PPP 400 nM + 201 0 uM): 25.32 | Sub-G1 ([2]; PPP 400 nM + 201 0 uM): 7.77 | BrdU(−) S ([9]; PPP 200 nM + 201 0 uM): 2.13 | BrdU(−) S ([9]; PPP 400 nM + 201 0 uM): 9.45 | TUNEL(+) ([10]; PPP 200 nM + 201 0 uM): 0.9 | TUNEL(+) ([10]; PPP 400 nM + 201 0 uM): 4.1 | Vital Cell ([11]; PPP 200 nM + 201 0 uM): 89 | Vital Cell ([11]; PPP 400 nM + 201 0 uM): 60

CCc1c2c(nc3ccc(O)cc13)-c1cc3c(c(=O)n1C2)COC(=O)[C@]3(O)CC [SN38, 7-ethyl-10-hydroxycamptothecin]
NF-κB nuclear translocation and activation of NF-κB target genes [12]: induce NF-κB nuclear translocation and activation of NF-κB target genes

CC(C)C[C@H](NC(=O)[C@H](Cc1ccccc1)NC(=O)c1cnccn1)B(O)O [bortezomib]
NFκB activation [8]: blocked NFκB activation

COc1cccc2c1C(=O)c1c(O)c3c(c(O)c1C2=O)C[C@@](O)(C(=O)CO)C[C@@H]3O[C@H]1C[C@H](N)[C@H](O)[C@H](C)O1 [doxorubicin]
NF-κB nuclear translocation and activation of NF-κB target genes [12]: induce NF-κB nuclear translocation and activation of NF-κB target genes
